Results on one compound are retold here after US20210308166A1, “ANTIOXIDANT COMPOSITION COMPRISING NOVEL GINSENOSIDE” (AMOREPACIFIC CORPORATION, priority 2018, published 2021).

Each structure is given as a SMILES string.

In one data set the test system is RAW 264.7 macrophages. Nature of the data set: Scavenging of LPS-induced reactive oxygen species, H2DCFDA fluorescence. It counts as cell-based. Here is the method:
RAW 264.7 macrophages purchased from ATCC were cultured in Dulbecco's modified Eagle's medium (Sigma) supplemented with 10% fetal bovine serum (FBS; HyClone) and 1% penicillin/streptomycin (Sigma) in a 5% CO2 incubator. After treating the RAW 264.7 cells with NAC (N-acetylcysteine; positive control group; Sigma) or each of the 7 ginsenosides extracted from the ginseng seed (GS #01 to GS #06 and GS #10; 10 μM each) for 1 hour, lipidpolysaccharides (LPS; inflammation/oxidative stress-induced group, Sigma) ware administered at a concentration of 10 ng/mL concentration for 30 minutes. Then, the cells were treated with 10 μM H2DCFDA (2′,7′-dichlorodihydrofluorescein diacetate; Invitrogen) for 30 minutes for measurement of reactive oxygen species. The amount of accumulated reactive oxygen species was measured using a TECAN multiplate reader (Tecan AG, excitation 485 nm, emission 530 nm).
The reactive oxygen species-scavenging ability of the novel ginsenoside GS #10 (isolated from the ginseng seed extract) according to an exemplary embodiment of the present disclosure was compared with that of three ginsenosides (Rg1, Rg3 and Rb1; Sigma), which are marker compounds of red ginseng as comparative examples of the present disclosure, in the same manner as in Test Example 2. The concentrations of the ginsenosides were 1 and 10 μM.

A short description of data set [1]: DPPH radical-scavenging (DPPH inhibition) assay. It counts as biochemical. Here is the method:
The DPPH (2,2-diphenyl-1-picrylhydrazyl) radical dissolved in an organic solvent has maximum absorbance at 515 nm. An antioxidant substance scavenges the DPPH radical, thereby turning the solution colorless and transparent. Accordingly, antioxidant effect can be compared by measuring the DPPH radical-scavenging activity of the ginsenosides through DPPH assay.
First, a DPPH solution was prepared by dissolving 4 mg of DPPH (Sigma) in 100 mL of ethanol (Sigma). Then, 10 μM of the novel ginsenoside GS #10 of an exemplary embodiment of the present disclosure or each of the ginsenosides GS #01 to GS #06 as comparative examples of the present disclosure, isolated from the ginseng seed extract, were dissolved in 200 μL of the DPPH solution. Trolox (Sigma; 10 μM) was used as a positive control group. After keeping the reaction solution at room temperature for 30 minutes, absorbance was measured at a wavelength of 515 nm.
DPPH-inhibiting effect was compared in the same manner as in Test Example 1. The novel ginsenoside GS #10 (isolated form the ginseng seed extract) according to an exemplary embodiment of the present disclosure was compared with three marker compounds of red ginseng (Rg1, Rg3 and Rb1; Sigma) as comparative examples of the present disclosure. The concentrations of the ginsenosides were 1 and 10 μM. […]

The next data set has as its system SH-SY5Y cells. Nature of the data set: Cytotoxicity / cell viability, CCK-8. The format is cell-based. Conditions: SH-SY5Y cells, 0.1, 1, 5, 10, 20 and 50 μM, CCK-8 (FIG. 15). As to the method:
In order to exclude the possibility that the ginsenoside might affect antioxidant effect through cytotoxic activity, cell growth in the presence of the novel ginsenoside GS #10 according to an exemplary embodiment of the present disclosure was evaluated as follows using CCK (Cell Counting Kit)-8.
After adding 10 μL of CCK-8 reagent to SH-SY5Y cells (Dojindo, Md., USA) on a 96-well plate and maintaining at 37° C. for 2 hours, absorbance was measured at 450 nm. Cell viability was represented as the percentage (%) of the absolute optical density of each sample with respect to an untreated sample. The concentrations of the novel ginsenoside GS #10 according to an exemplary embodiment of the present disclosure in the medium for culturing the cells were 0.1, 1, 5, 10, 20 and 50 μM.

With `CC1(C)C(=O)CC[C@@]2(C)C1[C@@H](O[C@H]1OC(CO)[C@H](O)C(O)C1O[C@H]1OC(CO)[C@H](O)C(O)C1O)C[C@]1(C)C2C[C@@H](O)C2C([C@]3(C)CC[C@H](C(C)(C)O)O3)CC[C@]21C` (stereo partly drawn) [Compound 10, (20S,24R)-6-O-β-D-glucopyranosyl(1->2)-β-D-glucopyranoside-dammar-3-one-20,24-epoxy-6a,12b,25-triol], the “removal of reactive oxygen species induced by LPS” value in the data set on RAW 264.7 macrophages (10 μM for 1 hour, then LPS 10 ng/mL 30 minutes, compared to Compounds 1-6 at the same concentration (FIG. 12)) was “can effectively remove the reactive oxygen species induced by LPS”. Moreover, the “production of reactive oxygen species” value in the data set on RAW 264.7 macrophages (1 and 10 μM, LPS-treated RAW 264.7 cells (FIG. 14)) is “decreased as the concentration of the novel ginsenoside GS #10 according to the present disclosure was increased”. Also, the “reactive oxygen species-scavenging ability” value with RAW 264.7 macrophages (1 and 10 μM, compared to ginsenosides Rg1, Rg3 and Rb1 (FIG. 14)) is listed as “remarkably superior”. Moreover, in data set [1] (10 μM, room temperature 30 minutes, absorbance 515 nm, compared to Compounds 1-6 at the same concentration (FIG. 11)), the “DPPH (reactive oxygen species)-scavenging ability, i.e., DPPH-inhibiting ability” value is on record as “remarkably higher DPPH (reactive oxygen species)-scavenging ability”. In data set [1] (1 and 10 μM, compared to ginsenosides Rg1, Rg3 and Rb1, marker compounds of red ginseng (FIG. 13)), the DPPH-inhibiting effect result was “remarkably excellent DPPH-inhibiting effect”. Moreover, in the data set with SH-SY5Y cells, the “cytotoxicity (cell viability, % of untreated sample)” value is listed as “no cytotoxicity up to 50 μM”.
